The text below walks through data of patent US8592172B2, “Bioluminescent assays using cyanobenzothiazole compounds” (Promega Corporation, priority 2010, dated 2013).

Series [1] relates to mouse liver microsomes. Description: Utilization of compound 3165 by mouse liver microsomes. Format: biochemical. The settings on record: 50 μM compound 3165, 0.2 mg/mL microsomes, 2 hours at 37° C. How it is done: (§1) The ability of endogenously expressed UGT isozymes to utilize compounds 3138 and 3165 as substrates was determined in a similar manner to the assays with recombinant microsomes (Example 1). […] Tissue microsomes were obtained from Xenotech LLC or BD Gentest. Addition of P450-Glo LDR plus cysteine and data analysis was performed in the same manner as for the recombinant Supersome panel screen (Example 1 above).

The target in series [2] is T1, UGT 1A9 (Homo sapiens, UniProt O60656).
T1 construct: purchased BD Gentest; host or cells: insect cells (microsomes)
T1 sequence (O60656 26-530): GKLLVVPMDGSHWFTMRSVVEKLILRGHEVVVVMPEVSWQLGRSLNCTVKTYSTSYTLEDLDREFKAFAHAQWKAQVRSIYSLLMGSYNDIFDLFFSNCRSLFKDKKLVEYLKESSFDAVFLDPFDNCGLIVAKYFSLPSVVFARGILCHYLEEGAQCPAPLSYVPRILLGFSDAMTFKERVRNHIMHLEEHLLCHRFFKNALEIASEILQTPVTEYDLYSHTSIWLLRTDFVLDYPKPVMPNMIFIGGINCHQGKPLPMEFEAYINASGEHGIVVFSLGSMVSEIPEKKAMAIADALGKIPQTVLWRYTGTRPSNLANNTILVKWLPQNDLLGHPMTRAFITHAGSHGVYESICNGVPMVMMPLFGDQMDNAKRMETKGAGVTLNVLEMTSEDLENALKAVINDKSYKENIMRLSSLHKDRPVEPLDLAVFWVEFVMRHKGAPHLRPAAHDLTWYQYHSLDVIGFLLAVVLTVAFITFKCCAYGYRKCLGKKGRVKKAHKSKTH
Description: Recombinant UGT panel, substrate utilization. Format: biochemical. As to conditions: 2 hour incubation at 37° C., recombinant Supersomes, background corrected. How it is done:
(§2) During this incubation, the cysteine reacts with the cyanobenzathiozole substrate to yield a D-luciferin derivative. […] Therefore, activity of the UGT enzyme can be measured by analyzing the difference (lower or no output) in relative light units (RLU) of a sample in which glucuronidation occurs compared to a sample that was run under the same conditions with no added UDPGA cofactor.
(§3) In this example, a series of 12 recombinant UGTs expressed in insect microsomes (Supersomes™, BD Gentest™), as well as the control microsomes not expressing the UGT enzyme, were incubated with compound 3138, compound 3478, or compound 3165 as substrates, with or without the UDPGA co-factor.
(§4) After addition of a luciferin detection reagent (LDR) containing D-cysteine, both the substrate and the product were converted to D-luciferins (compound 3478 is already a luciferin derivative before addition of the LDR).
(§5) Reactions were assembled in a white, 96-well plate. Each well contained 20 μL of reaction mixture comprised of 100 mM TES, pH 7.5, 16 mM MgCl2, 50 μg/mL alamethicin (Sigma), 60 μM compound 3138 or compound 3478, and 0.4 mg/mL of control or recombinant UGT membranes. The reactions were initiated by addition of 20 μL of water or 8 mM triammonium UDPGA (Sigma) to each well. The plate was mixed, sealed, and incubated in a 37° C. water bath for 2 hours. After the incubation, 40 μL P450-Glo LDR (Promega) with 20 mM D-cysteine-HCl.H2O (Sigma) was added to each well, the plate was mixed and allowed to incubate at room temperature for 20 minutes. After the incubation was completed, the plate was read on a Veritas™ luminometer (Turner BioSystems, Inc.; Sunnyvale, Calif.).
(§6) For each isozyme, the bioluminescence from the replicates containing UDPGA were subtracted from the average bioluminescence of the replicates without UDPGA. The average Δ RLU value obtained and the standard deviation of the replicates were then divided by the average bioluminescence for samples without UDPGA to obtain the % utilization for each isozyme. The % utilization obtained from the control microsomes was then subtracted from each isozyme to give the background corrected utilization data for those isozymes.

The target of series [3] is T2, UGT 1A4 (Homo sapiens, UniProt P22310).
T2 construct: purchased BD Gentest; host or cells: insect cells (microsomes)
T2 sequence (P22310 29-534): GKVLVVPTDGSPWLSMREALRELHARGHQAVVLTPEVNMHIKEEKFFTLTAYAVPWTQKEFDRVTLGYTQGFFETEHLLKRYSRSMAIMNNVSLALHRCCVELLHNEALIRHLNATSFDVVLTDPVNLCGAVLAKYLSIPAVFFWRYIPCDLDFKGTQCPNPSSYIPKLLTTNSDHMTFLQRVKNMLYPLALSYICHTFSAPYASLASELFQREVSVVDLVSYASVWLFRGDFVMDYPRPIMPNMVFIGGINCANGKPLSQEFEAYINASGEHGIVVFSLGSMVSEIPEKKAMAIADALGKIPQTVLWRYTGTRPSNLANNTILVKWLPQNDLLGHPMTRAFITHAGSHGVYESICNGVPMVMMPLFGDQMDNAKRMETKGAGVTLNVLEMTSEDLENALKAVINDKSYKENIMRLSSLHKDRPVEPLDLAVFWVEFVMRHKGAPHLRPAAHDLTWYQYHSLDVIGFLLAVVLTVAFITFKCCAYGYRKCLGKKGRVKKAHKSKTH
Description: Recombinant UGT panel, substrate utilization. Format: biochemical. As to conditions: 2 hour incubation at 37° C., recombinant Supersomes. As to the method: as §2, §3, §4, §5, §6

Series [4] relates to rat liver microsomes. Description: Utilization of compound 3165 by rat liver microsomes. The series is classed as biochemical. As to conditions: 50 μM compound 3165, 0.2 mg/mL microsomes, 2 hours at 37° C. As to the method: as §1
A general note: Microsomes from liver hold many membrane-bound enzymes, among them those of drug oxidation.

In series [5] the test system is human liver microsomes. Description: Utilization of compound 3165 by human microsomes. As to conditions: 50 μM compound 3165, 0.2 mg/mL microsomes, 2 hours at 37° C. Format: biochemical. As to the method: as §1
Series [6] has as its system UGT isozymes in human hepatocytes. As to conditions: compound 3138, 15-20 minutes at 37° C.
In series [7] the test system is endogenously expressed UGT isozymes in mammalian microsomes. As to the kind of experiment: Utilization of compound 3138 by mammalian tissue microsomes. Format: biochemical. As to conditions: 50 μM compound 3138, 0.1 mg/mL mammalian microsomes, 15 minutes at 37° C. How it is done: as §1
The target in series [8] is T3, UGT 1A1 (Homo sapiens, UniProt P22309).
T3 construct: purchased BD Gentest; host or cells: insect cells (microsomes)
T3 sequence (P22309 26-533): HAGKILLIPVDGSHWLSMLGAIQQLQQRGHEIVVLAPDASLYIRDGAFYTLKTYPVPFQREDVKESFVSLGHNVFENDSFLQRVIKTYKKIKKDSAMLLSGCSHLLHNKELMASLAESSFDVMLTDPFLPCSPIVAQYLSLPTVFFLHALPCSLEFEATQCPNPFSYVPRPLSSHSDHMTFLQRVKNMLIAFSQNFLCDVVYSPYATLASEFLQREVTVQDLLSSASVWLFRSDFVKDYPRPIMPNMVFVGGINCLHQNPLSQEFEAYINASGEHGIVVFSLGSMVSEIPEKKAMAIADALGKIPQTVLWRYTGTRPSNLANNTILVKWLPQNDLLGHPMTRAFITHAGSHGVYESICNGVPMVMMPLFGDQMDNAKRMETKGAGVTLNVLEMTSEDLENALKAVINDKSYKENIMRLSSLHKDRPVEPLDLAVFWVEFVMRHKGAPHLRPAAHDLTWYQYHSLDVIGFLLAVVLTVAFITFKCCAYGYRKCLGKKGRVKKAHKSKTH
Description: Recombinant UGT panel, substrate utilization. The settings on record: 2 hour incubation at 37° C., recombinant Supersomes, background corrected. Format: biochemical. How it is done:
as §2, §3, §4, §5, §6

In series [9] the target is T4, UGT 1A3 (Homo sapiens, UniProt P35503).
T4 construct: purchased BD Gentest; host or cells: insect cells (microsomes)
T4 sequence (P35503 29-534): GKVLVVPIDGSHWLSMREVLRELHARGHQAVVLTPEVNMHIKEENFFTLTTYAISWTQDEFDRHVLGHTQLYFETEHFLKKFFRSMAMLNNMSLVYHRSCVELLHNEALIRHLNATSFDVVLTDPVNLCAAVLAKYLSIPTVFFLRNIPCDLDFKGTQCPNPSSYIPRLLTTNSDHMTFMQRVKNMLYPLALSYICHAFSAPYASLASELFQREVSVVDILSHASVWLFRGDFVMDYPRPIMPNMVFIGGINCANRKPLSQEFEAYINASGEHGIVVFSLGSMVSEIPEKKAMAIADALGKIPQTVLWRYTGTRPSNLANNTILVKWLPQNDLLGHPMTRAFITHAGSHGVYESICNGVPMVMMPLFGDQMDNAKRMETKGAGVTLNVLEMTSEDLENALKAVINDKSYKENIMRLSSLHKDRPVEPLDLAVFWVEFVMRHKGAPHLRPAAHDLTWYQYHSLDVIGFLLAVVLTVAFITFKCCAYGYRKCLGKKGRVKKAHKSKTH
Description: Recombinant UGT panel, substrate utilization. Format: biochemical. As to conditions: 2 hour incubation at 37° C., recombinant Supersomes. As to the method:
as §2, §3, §4, §5, §6

The target in series [10] is T5, UGT 2B15 (Homo sapiens, UniProt P54855).
T5 construct: purchased BD Gentest; host or cells: insect cells (microsomes)
T5 sequence (P54855 24-530): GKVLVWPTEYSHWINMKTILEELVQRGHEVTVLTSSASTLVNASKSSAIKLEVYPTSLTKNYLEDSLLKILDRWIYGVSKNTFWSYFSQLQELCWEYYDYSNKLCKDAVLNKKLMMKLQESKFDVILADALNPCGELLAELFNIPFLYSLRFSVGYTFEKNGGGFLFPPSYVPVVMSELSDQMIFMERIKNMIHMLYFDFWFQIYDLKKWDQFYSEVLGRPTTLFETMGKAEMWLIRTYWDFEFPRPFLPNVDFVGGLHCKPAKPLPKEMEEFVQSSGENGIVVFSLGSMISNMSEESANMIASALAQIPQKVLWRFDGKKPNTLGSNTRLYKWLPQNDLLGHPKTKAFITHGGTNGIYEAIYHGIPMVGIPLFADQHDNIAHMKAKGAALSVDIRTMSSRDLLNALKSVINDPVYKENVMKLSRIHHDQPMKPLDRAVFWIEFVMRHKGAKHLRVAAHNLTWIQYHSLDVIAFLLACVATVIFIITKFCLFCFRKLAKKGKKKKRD
As to the kind of experiment: Recombinant UGT panel, substrate utilization. Format: biochemical. As to conditions: 2 hour incubation at 37° C., recombinant Supersomes. How it is done:
as §2, §3, §4, §5, §6

Series [11] deals with T6, UGT 1A7 (Homo sapiens, UniProt Q9HAW7).
T6 construct: purchased BD Gentest; host or cells: insect cells (microsomes)
T6 sequence (Q9HAW7 26-530): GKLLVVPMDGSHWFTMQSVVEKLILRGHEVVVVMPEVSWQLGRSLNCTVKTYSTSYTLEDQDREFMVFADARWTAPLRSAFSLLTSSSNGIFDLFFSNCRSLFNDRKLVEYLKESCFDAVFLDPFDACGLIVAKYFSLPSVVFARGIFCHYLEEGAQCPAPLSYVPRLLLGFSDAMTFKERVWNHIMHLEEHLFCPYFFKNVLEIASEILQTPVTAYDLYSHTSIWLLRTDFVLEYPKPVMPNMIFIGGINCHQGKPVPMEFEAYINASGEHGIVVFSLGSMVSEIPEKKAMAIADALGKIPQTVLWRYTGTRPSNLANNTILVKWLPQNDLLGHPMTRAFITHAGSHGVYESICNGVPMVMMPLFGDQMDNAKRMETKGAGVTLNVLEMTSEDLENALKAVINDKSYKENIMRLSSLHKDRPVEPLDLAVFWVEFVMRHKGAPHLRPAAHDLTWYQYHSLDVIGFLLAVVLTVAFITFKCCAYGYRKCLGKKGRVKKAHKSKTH
As to the kind of experiment: Recombinant UGT panel, substrate utilization. The series is classed as biochemical. As to conditions: 2 hour incubation at 37° C., recombinant Supersomes. As to the method:
as §2, §3, §4, §5, §6

The target in series [12] is T7, UGT 1A6 (Homo sapiens, UniProt P19224).
T7 construct: purchased BD Gentest; host or cells: insect cells (microsomes)
T7 sequence (P19224 27-532): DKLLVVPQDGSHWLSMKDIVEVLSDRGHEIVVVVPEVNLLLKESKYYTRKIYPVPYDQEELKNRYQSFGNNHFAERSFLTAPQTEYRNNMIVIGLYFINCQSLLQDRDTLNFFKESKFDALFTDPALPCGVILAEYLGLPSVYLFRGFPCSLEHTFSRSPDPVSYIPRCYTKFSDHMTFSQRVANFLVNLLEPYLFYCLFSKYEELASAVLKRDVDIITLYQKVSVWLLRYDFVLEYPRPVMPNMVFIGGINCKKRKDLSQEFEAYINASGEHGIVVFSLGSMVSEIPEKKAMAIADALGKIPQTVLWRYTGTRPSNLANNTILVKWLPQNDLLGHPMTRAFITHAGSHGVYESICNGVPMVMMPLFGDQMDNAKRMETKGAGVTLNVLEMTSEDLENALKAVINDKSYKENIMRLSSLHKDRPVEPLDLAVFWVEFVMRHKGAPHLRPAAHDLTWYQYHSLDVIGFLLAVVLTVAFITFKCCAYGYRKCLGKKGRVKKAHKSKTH
As to the kind of experiment: Recombinant UGT panel, substrate utilization. The series is classed as biochemical. As to conditions: 2 hour incubation at 37° C., recombinant Supersomes. How it is done:
as §2, §3, §4, §5, §6

Series [13] deals with T8, UGT 1A10 (Homo sapiens, UniProt Q9HAW8).
T8 construct: purchased BD Gentest; host or cells: insect cells (microsomes)
T8 sequence (Q9HAW8 26-530): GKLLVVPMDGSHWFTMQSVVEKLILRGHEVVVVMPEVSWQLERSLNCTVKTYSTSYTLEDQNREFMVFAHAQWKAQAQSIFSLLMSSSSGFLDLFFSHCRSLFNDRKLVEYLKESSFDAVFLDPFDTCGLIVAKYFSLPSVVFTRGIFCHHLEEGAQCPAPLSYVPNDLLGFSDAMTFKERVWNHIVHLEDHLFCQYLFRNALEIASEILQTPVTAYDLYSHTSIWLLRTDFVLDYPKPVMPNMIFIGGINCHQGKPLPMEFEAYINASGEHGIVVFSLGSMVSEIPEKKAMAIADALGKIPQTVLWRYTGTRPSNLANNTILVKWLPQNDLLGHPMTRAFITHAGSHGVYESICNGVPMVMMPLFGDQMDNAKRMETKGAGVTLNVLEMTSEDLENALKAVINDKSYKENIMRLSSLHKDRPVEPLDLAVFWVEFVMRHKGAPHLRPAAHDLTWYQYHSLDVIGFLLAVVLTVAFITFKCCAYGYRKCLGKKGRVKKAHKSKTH
As to the kind of experiment: Recombinant UGT panel, substrate utilization. The series is classed as biochemical. As to conditions: 2 hour incubation at 37° C., recombinant Supersomes, background corrected. As to the method:
as §2, §3, §4, §5, §6

Series [14] deals with T9, UGT 1A8 (Homo sapiens, UniProt Q9HAW9).
T9 construct: purchased BD Gentest; host or cells: insect cells (microsomes)
T9 sequence (Q9HAW9 26-530): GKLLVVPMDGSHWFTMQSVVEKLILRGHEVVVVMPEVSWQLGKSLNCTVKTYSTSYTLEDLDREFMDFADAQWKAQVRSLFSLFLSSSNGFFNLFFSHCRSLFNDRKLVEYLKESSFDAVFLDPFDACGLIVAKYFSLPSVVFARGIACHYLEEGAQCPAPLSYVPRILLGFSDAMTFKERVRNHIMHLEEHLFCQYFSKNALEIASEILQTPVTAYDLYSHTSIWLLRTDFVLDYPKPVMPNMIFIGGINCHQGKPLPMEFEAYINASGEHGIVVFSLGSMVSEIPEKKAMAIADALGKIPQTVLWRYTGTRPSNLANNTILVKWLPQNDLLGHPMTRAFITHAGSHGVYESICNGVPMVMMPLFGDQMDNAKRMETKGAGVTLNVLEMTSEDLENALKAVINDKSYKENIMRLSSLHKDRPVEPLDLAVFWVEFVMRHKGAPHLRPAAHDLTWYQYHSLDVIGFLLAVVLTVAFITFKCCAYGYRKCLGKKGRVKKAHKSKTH
Description: Recombinant UGT panel, substrate utilization. The settings on record: 2 hour incubation at 37° C., recombinant Supersomes, background corrected. Format: biochemical. As to the method: as §2, §3, §4, §5, §6

In series [15] the target is T10, UGT 2B17 (Homo sapiens, UniProt O75795).
T10 construct: purchased BD Gentest; host or cells: insect cells (microsomes)
T10 sequence (O75795 24-530): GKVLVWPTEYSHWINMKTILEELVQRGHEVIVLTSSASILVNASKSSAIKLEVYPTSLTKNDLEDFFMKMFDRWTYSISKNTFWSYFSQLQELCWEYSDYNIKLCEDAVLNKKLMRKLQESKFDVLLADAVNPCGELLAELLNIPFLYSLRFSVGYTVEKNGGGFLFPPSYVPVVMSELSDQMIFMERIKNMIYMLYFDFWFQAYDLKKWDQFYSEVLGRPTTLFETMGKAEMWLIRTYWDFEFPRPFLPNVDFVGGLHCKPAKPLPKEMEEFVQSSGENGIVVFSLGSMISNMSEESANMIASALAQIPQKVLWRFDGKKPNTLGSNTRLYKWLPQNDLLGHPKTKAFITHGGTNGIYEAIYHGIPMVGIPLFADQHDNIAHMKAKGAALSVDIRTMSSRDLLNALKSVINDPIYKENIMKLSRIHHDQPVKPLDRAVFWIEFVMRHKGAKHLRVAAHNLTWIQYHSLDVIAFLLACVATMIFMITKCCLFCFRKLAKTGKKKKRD
As to the kind of experiment: Recombinant UGT panel, substrate utilization. Format: biochemical. As to conditions: 2 hour incubation at 37° C., recombinant Supersomes. How it is done:
as §2, §3, §4, §5, §6

The target in series [16] is T11, UGT 2B4 (Homo sapiens, UniProt P06133).
T11 construct: purchased BD Gentest; host or cells: insect cells (microsomes)
T11 sequence (P06133 24-528): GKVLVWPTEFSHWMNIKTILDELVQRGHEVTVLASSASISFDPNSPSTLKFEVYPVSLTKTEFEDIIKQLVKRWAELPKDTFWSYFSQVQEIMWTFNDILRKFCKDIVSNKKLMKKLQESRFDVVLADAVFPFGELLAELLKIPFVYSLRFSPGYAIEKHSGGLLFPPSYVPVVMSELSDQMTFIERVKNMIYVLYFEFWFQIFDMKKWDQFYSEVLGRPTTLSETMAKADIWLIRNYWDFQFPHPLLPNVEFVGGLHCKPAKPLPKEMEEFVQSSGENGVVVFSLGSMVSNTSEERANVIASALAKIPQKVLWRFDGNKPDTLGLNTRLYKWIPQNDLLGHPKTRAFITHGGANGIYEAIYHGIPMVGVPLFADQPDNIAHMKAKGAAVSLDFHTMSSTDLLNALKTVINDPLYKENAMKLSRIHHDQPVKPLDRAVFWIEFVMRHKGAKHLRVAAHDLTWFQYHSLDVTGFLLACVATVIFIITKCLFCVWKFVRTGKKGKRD
Description: Recombinant UGT panel, substrate utilization. Format: biochemical. As to conditions: 2 hour incubation at 37° C., recombinant Supersomes. As to the method: as §2, §3, §4, §5, §6

Series [17] has as its target UGT 2B7 (Homo sapiens, UniProt P16662). Description: Recombinant UGT panel, substrate utilization. Format: biochemical. The arrangement: purchased BD Gentest; host or cells: insect cells (microsomes). As to conditions: 2 hour incubation at 37° C., recombinant Supersomes, background corrected. As to the method:
as §2, §3, §4
Reactions were assembled in a white, 96-well plate. Each well contained 20 μL of reaction mixture comprised of 100 mM TES, pH 7.5, 16 mM MgCl2, 50 μg/mL alamethicin (Sigma), 60 μM compound 3138 or compound 3478, and 0.4 mg/mL of control or recombinant UGT membranes. The reactions were initiated by addition of 20 μL of water or 8 mM triammonium UDPGA (Sigma) to each well. […] After the incubation was completed, the plate was read on a Veritas™ luminometer (Turner BioSystems, Inc.; Sunnyvale, Calif.). […]

Chain of UGT 2B7 (P16662 24-529): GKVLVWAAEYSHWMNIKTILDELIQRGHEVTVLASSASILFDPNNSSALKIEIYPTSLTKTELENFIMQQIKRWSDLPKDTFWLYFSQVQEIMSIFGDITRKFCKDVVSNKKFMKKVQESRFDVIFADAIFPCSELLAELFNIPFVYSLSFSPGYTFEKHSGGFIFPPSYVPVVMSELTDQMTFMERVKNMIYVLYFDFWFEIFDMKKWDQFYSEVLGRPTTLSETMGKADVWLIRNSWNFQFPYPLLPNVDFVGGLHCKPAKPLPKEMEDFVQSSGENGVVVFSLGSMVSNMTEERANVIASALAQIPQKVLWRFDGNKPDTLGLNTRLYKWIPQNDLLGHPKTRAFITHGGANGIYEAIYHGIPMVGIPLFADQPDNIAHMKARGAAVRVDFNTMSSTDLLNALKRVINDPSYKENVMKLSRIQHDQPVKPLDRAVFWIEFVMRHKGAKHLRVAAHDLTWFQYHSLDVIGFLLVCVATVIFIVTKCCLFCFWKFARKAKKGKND

As to `N#Cc1nc2ccc(NCc3cccc(N)c3)cc2s1` [Compound 3165], in series [1], the “utilization (activity) with mouse liver microsomes” value is given as “Activity was also seen”. For the same compound, the “% utilization of substrate by UGT 1A9” value in [2] is given as “to a lesser extent”. Moreover, the “utilization of substrate by UGT 1A4” value in [3] was “only utilized by UGT 1A4”. Moreover, the “utilization (activity) with rat liver microsomes” value in series [4] was “Activity was also seen”. Besides, in series [5], the “utilization (activity) with human liver microsomes versus human renal or intestinal microsomes” value is “Activity was much higher for human liver microsomes”.

Regarding `Cc1cc(O)cc2sc(C#N)nc12` [Compound 3138], in [6], the “conversion of substrate by intact hepatocytes” value is reported as “Conversion of the PBI 3138 was seen”. In [7], the “utilization by tissue microsomes compared with control 1A1 Supersomes” value was “utilized much more of compound 3138 than the control 1A1 Supersomes”. In series [8], the “% utilization of substrate by UGT 1A1” value is listed as “over 50%”. Further, the “utilization of substrate by UGT 1A3” value in [9] was “detectable levels of utilization above background”. Also, in [10], the “utilization of substrate by UGT 2B15” value is listed as “detectable levels of utilization above background”. Further, in [2], the “% utilization of substrate by UGT 1A9” value is reported as “over 50%”. The “utilization of substrate by UGT 1A4” value in series [3] is given as “did not utilize either compound 3138 or 3478 to an appreciable extent”. Also, the “utilization of substrate by UGT 1A7” value in series [11] is listed as “detectable levels of utilization above background”. For the same compound, the “utilization of substrate by UGT 1A6” value in series [12] is listed as “detectable levels of utilization above background”. For the same compound, the “% utilization of substrate by UGT 1A10” value in [13] is “over 50%”. Also, the “% utilization of substrate by UGT 1A8” value in series [14] is on record as “over 50%”. Also, in series [15], the “utilization of substrate by UGT 2B17” value was “detectable levels of utilization above background”. Also, the “utilization of substrate by UGT 2B4” value in series [16] is listed as “did not utilize either compound 3138 or 3478 to an appreciable extent”. Also, in series [17], the “% utilization of substrate by UGT 2B7” value is “over 50%”.
